Laboratory results reported in patent US8853239B2, “Compounds, pharmaceutical compositions and uses thereof” (Boehringer Ingelheim International GmbH, priority 2011, dated 2014).

Molecular target: T1, human GPR119 (Homo sapiens, UniProt Q8TDV5)
T1 construct: expression vector for human GPR119 cDNA (Acc. No. NP_848566); expressed in transfected cells
T1 sequence (Q8TDV5 1-335): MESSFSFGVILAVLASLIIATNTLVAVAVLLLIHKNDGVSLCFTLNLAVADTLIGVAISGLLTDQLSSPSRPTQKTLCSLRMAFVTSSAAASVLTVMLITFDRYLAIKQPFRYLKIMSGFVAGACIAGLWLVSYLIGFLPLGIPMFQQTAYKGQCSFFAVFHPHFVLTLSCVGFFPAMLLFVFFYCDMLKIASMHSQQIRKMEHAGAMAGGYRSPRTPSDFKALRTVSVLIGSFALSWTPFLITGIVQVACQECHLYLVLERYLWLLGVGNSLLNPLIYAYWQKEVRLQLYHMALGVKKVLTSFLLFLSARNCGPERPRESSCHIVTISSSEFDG
Test: AlphaScreen cAMP assay in MIN6 cells stably transfected with human GPR119
Format: cell-based
Settings: Min-6/hGPR119 cells, stimulation of intracellular cAMP, 45 minutes incubation at room temperature
Description: The compounds of formula I according to the invention modulate the activity of the G-protein-coupled receptor GPR119. The effect of the compounds on the activation of GPR119 and on the stimulation of intracellular cAMP concentration is determined using the AlphaScreen cAMP Assay Kit (Cat. No. #6760625R) made by PerkinElmer.
MIN6 cells [Miyazaki J et al. Endocrinology. 1990 July; 127(1):126-32] are stably transfected with an expression vector for human GPR119 cDNA (Acc. No. NP_848566). Min-6/hGPR119 cells are cultured in DMEM, 10% FBS, 50 μM β-mercaptoethanol, 0.3 mg/mL Geniticin, 2 mM GlutaMAX at 37° C. 5% CO2. For the assay, the cells are seeded in Optiplates (white, 384-well, 160W-barcoded, TC, sterile with lid, Cat. No. #6007688 (Perkin Elmer); 10000 cells/well; 50 μl). The plates covered with lids are then incubated for 24 hours at 37° C./5% CO2. After the medium is aspirated from the wells completely, 10 μl of the test compound are added, the compounds are diluted using stimulating buffer (140 mM NaCl, 3.6 mM KCl, 0.5 mM NaH2PO4, 0.5 mM MgSO4, 1.5 mM CaCl2, 10 mM Hepes, 5 mM NaHCO3; pH 7.4. 0.5 mM IBMX and 0.1% BSA, the final DMSO concentration is 1%). After 45 minutes incubation at room temperature (approx. 20° C.), the cAMP concentrations are determined using the AlphaScreen cAMP Assay Kit (Cat. No. #6760625R from PerkinElmer).

CS(=O)(=O)N1CC=C(c2cc3c(cn2)OC(C2CCN(CC4(C(F)(F)F)CC4)CC2)C3)CC1 (racemic) [Example 6, 5-(1-Methanesulfonyl-1,2,3,6-tetrahydro-pyridin-4-yl)-2-{1-[(1-trifluoromethyl-cyclopropyl)methyl]-piperidin-4-yl}-2,3-dihydro-furo[2,3-c]pyridine]
EC50: 21 nM

CC(C)(F)CN1CCC(C2Cc3cc(-c4ccc(S(C)(=O)=O)cc4)ccc3O2)CC1 (centres unmarked) [Example 1, 1-(2-Fluoro-2-methyl-propyl)-4-[5-(4-methanesulfonyl-phenyl)-2,3-dihydro-benzofuran-2-yl]-piperidine]
EC50: 417 nM

CC(C)(F)CN1CCC(C2Cc3cc(C4=CCN(S(C)(=O)=O)CC4)ncc3O2)CC1 (centres unmarked) [Example 3, 2-[1-(2-Fluoro-2-methyl-propyl)-piperidin-4-yl]-5-(1-methanesulfonyl-1,2,3,6-tetrahydro-pyridin-4-yl)-2,3-dihydro-furo[2,3-c]pyridine]
EC50: 36 nM

CC(C)(F)CN1CCC(C2Cc3cc(-c4ccc(CS(C)(=O)=O)cc4)ncc3O2)CC1 (centres unmarked) [Example 4, 2-[1-(2-Fluoro-2-methyl-propyl)-piperidin-4-yl]-5-(4-methanesulfonylmethyl-phenyl)-2,3-dihydro-furo[2,3-c]pyridine]
EC50: 215 nM

CC(C)(F)CN1CCC(C2Cc3cc(C4CCN(S(C)(=O)=O)CC4)ncc3O2)CC1 (centres unmarked) [Example 5, 2-[1-(2-Fluoro-2-methyl-propyl)-piperidin-4-yl]-5-(1-methanesulfonyl-piperidin-4-yl)-2,3-dihydro-furo[2,3-c]pyridine]
EC50: 663 nM

CS(=O)(=O)Cc1ccc(-c2cc3c(cn2)OC(C2CCN(CC4(C(F)(F)F)CC4)CC2)C3)c(F)c1 (centres unmarked) [Example 7, 5-(2-Fluoro-4-methanesulfonylmethyl-phenyl)-2-{1-[(1-trifluoromethyl-cyclopropyl)methyl]-piperidin-4-yl}-2,3-dihydrofuro[2,3-c]pyridine]
EC50: 22 nM

CS(=O)(=O)Cc1ccc(-c2cc3c(cn2)OC(C2CCN(CC4(C(F)(F)F)CC4)CC2)C3)cc1 (centres unmarked) [Example 8, 5-(4-Methanesulfonylmethyl-phenyl)-2-{1-[(1-trifluoromethyl-cyclopropyl)methyl]-piperidin-4-yl}-2,3-dihydrofuro[2,3-c]pyridine]
EC50: 35 nM

CC(C)(F)CN1CCC(C2Cc3cc(-c4ccc(CS(C)(=O)=O)cc4F)ncc3O2)CC1 (centres unmarked) [Example 9, 5-(2-Fluoro-4-methanesulfonylmethyl-phenyl)-2-[1-(2-fluoro-2-methyl-propyl)-piperidin-4-yl]-2,3-dihydro-furo[2,3-c]pyridine]
EC50: 100 nM

CC(C)(F)CN1CCC([C@@]2(C)Cc3cc(-c4ccc(S(C)(=O)=O)cc4)ncc3O2)CC1 [Example 10, (R)-2-[1-(2-Fluoro-2-methyl-propyl)-piperidin-4-yl]-5-(4-methanesulfonyl-phenyl)-2-methyl-2,3-dihydro-furo[2,3-c]pyridine]
EC50: 66 nM

CC(C)(F)CN1CCC([C@@H]2Cc3cc(C4=CCN(S(C)(=O)=O)CC4)ncc3O2)CC1 [Example 11, (S)-2-[1-(2-Fluoro-2-methyl-propyl)-piperidin-4-yl]-5-(1-methanesulfonyl-1,2,3,6-tetrahydro-pyridin-4-yl)-2,3-dihydro-furo[2,3-c]pyridine]
EC50: 848 nM

CC(C)(F)CN1CCC([C@H]2Cc3cc(C4=CCN(S(C)(=O)=O)CC4)ncc3O2)CC1 [Example 12, (R)-2-[1-(2-Fluoro-2-methyl-propyl)-piperidin-4-yl]-5-(1-methanesulfonyl-1,2,3,6-tetrahydro-pyridin-4-yl)-2,3-dihydro-furo[2,3-c]pyridine]
EC50: 46 nM

C[C@]1(C2CCN(CC3(C(F)(F)F)CC3)CC2)Cc2cc(C3=CCN(S(C)(=O)=O)CC3)ncc2O1 [Example 13, (R)-5-(1-Methanesulfonyl-1,2,3,6-tetrahydro-pyridin-4-yl)-2-methyl-2-{1-[(1-trifluoromethyl-cyclopropyl)methyl]-piperidin-4-yl}-2,3-dihydro-furo[2,3-c]pyridine]
EC50: 5 nM

CS(=O)(=O)N1CC=C(c2cc3c(cn2)O[C@@H](C2CCN(CC4(C(F)(F)F)CC4)CC2)C3)CC1 [Example 14, (R)-5-(1-Methanesulfonyl-1,2,3,6-tetrahydro-pyridin-4-yl)-2-{1-[(1-trifluoromethyl-cyclopropyl)methyl]-piperidin-4-yl}-2,3-dihydro-furo[2,3-c]pyridine]
EC50: 2 nM

CS(=O)(=O)N1CC=C(c2cc3c(cn2)O[C@H](C2CCN(CC4(C(F)(F)F)CC4)CC2)C3)CC1 [Example 15, (S)-5-(1-Methanesulfonyl-1,2,3,6-tetrahydro-pyridin-4-yl)-2-{1-[(1-trifluoromethyl-cyclopropyl)methyl]-piperidin-4-yl}-2,3-dihydro-furo[2,3-c]pyridine]
EC50: 78 nM

CC(C)(F)CN1CCC([C@@]2(C)Cc3cc(C4=CCN(S(C)(=O)=O)CC4)ncc3O2)CC1 [Example 16, (R)-2-[1-(2-Fluoro-2-methyl-propyl)-piperidin-4-yl]-5-(1-methanesulfonyl-1,2,3,6-tetrahydro-pyridin-4-yl)-2-methyl-2,3-dihydro-furo[2,3-c]pyridine]
EC50: 25 nM

C[C@]1(C2CCN(CC3(C(F)(F)F)CC3)CC2)Cc2cc(-c3ccc(S(C)(=O)=O)cc3)ncc2O1 [Example 18]
EC50: 27 nM

CC(C)(F)CN1CCC([C@H]2Cc3cc(-c4ccc(S(C)(=O)=O)cc4)ncc3O2)CC1 [Example 19, (R)-2-[1-(2-Fluoro-2-methyl-propyl)-piperidin-4-yl]-5-(4-methanesulfonyl-phenyl)-2,3-dihydro-furo[2,3-c]pyridine]
EC50: 84 nM
